Test results reported in ChEMBL document CHEMBL4017547, “Influences of Histidine-1 and Azaphenylalanine-4 on the Affinity, Anti-inflammatory, and Antiangiogenic Activities of Azapeptide Cluster of Differentiation 36 Receptor Modulators” (J Med Chem, 2017).
Activity calls are given as the source filed them. The calls are words filed in the database; no cut-off is given here. Starred links: 1 amine or outer side, 2 acyl side, 3 side chain; linkers in the order of their positions; H or OH if unused. Non-standard residues stand in square brackets, D forms with d. Residues, ends and D or L forms follow the SMILES beside them. dTrp(2-Me) = Cc1[nH]c2ccccc2c1C[C@@H](N)C(=O)O; azaTyr = O=C(N(Cc1ccc(O)cc1)N[*:1])[*:2]; azaPhe = O=C(N(Cc1ccccc1)N[*:1])[*:2]

Experiments:
[1] = target: Platelet glycoprotein 4 (Mus musculus) (UniProt Q08857); test: Modulation of CD36 in mouse […] cells assessed as inhibition of R-FSL1-induced NO over production at 1 uM preincubated for 1 hr followed by overnight R-FSL1 stimulation by DAN-fluorescence assay relative to control; format: cell-based
[2] = target: Platelet glycoprotein 4 (Mus musculus) (UniProt Q08857); test: Modulation of CD36 in mouse J774A.1 cells assessed as inhibition of R-FSL1-induced NO over production at 1 uM preincubated for 1 hr followed by overnight R-FSL1 stimulation by DAN-fluorescence assay relative to control; format: cell-based
[3] = target: Platelet glycoprotein 4 (Rattus norvegicus, UniProt Q07969); test: Inhibition of photoactivatable [125I]-Tyr-Bpa-Ala-hexarelin binding to CD36 in Sprague-Dawley rat heart membranes after 60 mins by SDS-PAGE analysis; format: cell membranes, Membrane
[4] = target: Platelet glycoprotein 4 (Rattus norvegicus) (UniProt Q07969); test: Inhibition of photoactivatable [125I]-Tyr-Bpa-Ala-hexarelin binding to CD36 in Sprague-Dawley rat heart membranes after 60 mins by SDS-PAGE analysis relative to H-His-D-Trp-Ala-aza(3-hydroxy)Phe-D-Phe-Lys-NH2; format: cell membranes; details: Membrane
[5] = species: Mus musculus; test: Anti-angiogenic activity in mouse sclera/choroid/retinal pigment epithelium complex assessed as reduction in microvascular sprouting at 1 uM after 24 hrs by microscopic analysis; format: functional
[6] = Pro-angiogenic activity in mouse sclera/choroid/retinal pigment epithelium complex assessed as increase in microvascular sprouting at 1 uM after 24 hrs by microscopic analysis; format: ADME

Platelet glycoprotein 4, sequence (Q07969 whole entry): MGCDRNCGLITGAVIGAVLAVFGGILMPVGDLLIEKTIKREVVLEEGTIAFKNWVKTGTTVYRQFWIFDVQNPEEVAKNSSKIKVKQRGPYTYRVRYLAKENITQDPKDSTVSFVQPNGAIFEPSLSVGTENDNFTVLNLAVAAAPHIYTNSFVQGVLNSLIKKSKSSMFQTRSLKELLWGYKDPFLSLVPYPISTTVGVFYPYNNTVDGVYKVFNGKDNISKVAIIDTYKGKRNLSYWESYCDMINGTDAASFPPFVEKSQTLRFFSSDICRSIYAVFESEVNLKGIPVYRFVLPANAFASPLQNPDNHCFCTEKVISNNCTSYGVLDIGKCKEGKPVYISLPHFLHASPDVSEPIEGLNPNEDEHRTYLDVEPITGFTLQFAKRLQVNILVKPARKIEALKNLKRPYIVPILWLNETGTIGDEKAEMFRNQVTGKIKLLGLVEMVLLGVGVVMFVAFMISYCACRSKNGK
Platelet glycoprotein 4 (Rattus norvegicus), sequence (Q07969 whole entry): as above
Platelet glycoprotein 4 (Mus musculus), sequence (Q08857 whole entry): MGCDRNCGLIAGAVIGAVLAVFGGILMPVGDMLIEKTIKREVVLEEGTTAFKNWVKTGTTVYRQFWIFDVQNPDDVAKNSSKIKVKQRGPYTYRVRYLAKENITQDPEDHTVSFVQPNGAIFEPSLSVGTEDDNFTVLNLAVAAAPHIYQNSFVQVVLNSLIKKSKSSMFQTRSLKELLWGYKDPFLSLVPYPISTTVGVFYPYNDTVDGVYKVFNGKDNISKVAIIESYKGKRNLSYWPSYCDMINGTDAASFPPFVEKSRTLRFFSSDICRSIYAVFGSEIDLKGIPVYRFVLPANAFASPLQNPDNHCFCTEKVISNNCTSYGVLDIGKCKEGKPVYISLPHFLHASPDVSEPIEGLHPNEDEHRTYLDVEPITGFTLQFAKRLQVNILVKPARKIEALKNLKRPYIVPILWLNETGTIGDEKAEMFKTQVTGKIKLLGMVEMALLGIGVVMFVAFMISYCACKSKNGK

SMILES	inhibition [1]	inhibition [2]	IC50 [3] [µM]	fold change (FC) [4]	Activity [5]	Activity [6]
COc1ccc(CN(NC(=O)[C@H](C)NC(=O)[C@@H](Cc2c[nH]c3ccccc23)NC(=O)[C@H](C)N)C(=O)N[C@H](Cc2ccccc2)C(=O)N[C@@H](CCCCN)C(N)=O)cc1	Active	Active	–	–	–	–
C[C@H](NC(=O)[C@@H](Cc1c[nH]c2ccccc12)NC(=O)[C@@H](N)Cc1cnc[nH]1)C(=O)NN(Cc1cccc(O)c1)C(=O)N[C@H](Cc1ccccc1)C(=O)N[C@@H](CCCCN)C(N)=O	inactive	inactive	28.2	–	inactive	–
C[C@H](NC(=O)[C@@H](Cc1c[nH]c2ccccc12)NC(=O)[C@@H](N)Cc1cnc[nH]1)C(=O)NN(Cc1c(F)cc(F)cc1F)C(=O)N[C@H](Cc1ccccc1)C(=O)N[C@@H](CCCCN)C(N)=O	inactive	inactive	–	–	–	–
C[C@H](NC(=O)[C@@H](Cc1c[nH]c2ccccc12)NC(=O)[C@@H](N)Cc1cnc[nH]1)C(=O)NN(Cc1ccc(I)cc1)C(=O)N[C@H](Cc1ccccc1)C(=O)N[C@@H](CCCCN)C(N)=O	inactive	inactive	–	–	–	–
Cc1cc(F)cc(C)c1CN(NC(=O)[C@H](C)NC(=O)[C@@H](Cc1c[nH]c2ccccc12)NC(=O)[C@@H](N)Cc1cnc[nH]1)C(=O)N[C@H](Cc1ccccc1)C(=O)N[C@@H](CCCCN)C(N)=O	Active	Active	5.58	5	inactive	–
C[C@H](NC(=O)[C@@H](Cc1c[nH]c2ccccc12)NC(=O)[C@@H](N)Cc1cnc[nH]1)C(=O)NN(Cc1ccc(Br)cc1)C(=O)N[C@H](Cc1ccccc1)C(=O)N[C@@H](CCCCN)C(N)=O	Active	Active	3.6	7.8	Active	–
C[C@H](NC(=O)[C@@H](Cc1c[nH]c2ccccc12)NC(=O)[C@@H](N)Cc1cnc[nH]1)C(=O)NN(Cc1ccccc1)C(=O)N[C@H](Cc1ccccc1)C(=O)N[C@@H](CCCCN)C(N)=O (H-H[dW]A[azaPhe][dF]K-NH2)	inactive	inactive	10.1	2.8	inactive	–
Cc1[nH]c2ccccc2c1C[C@@H](NC(=O)[C@@H](N)Cc1c[nH]cn1)C(=O)N[C@@H](C)C(=O)N[C@@H](Cc1c[nH]c2ccccc12)C(=O)N[C@H](Cc1ccccc1)C(=O)N[C@@H](CCCCN)C(N)=O (H-H[dTrp(2-Me)]AW[dF]K-NH2)	–	–	–	18.1	–	–
C[C@H](N)C(=O)N[C@H](Cc1c[nH]c2ccccc12)C(=O)N[C@@H](C)C(=O)NN(Cc1ccc(Cl)cc1)C(=O)N[C@H](Cc1ccccc1)C(=O)N[C@@H](CCCCN)C(N)=O	–	–	4.94	5.7	Active	–
COc1cc(Cl)c(CN(NC(=O)[C@H](C)NC(=O)[C@@H](Cc2c[nH]c3ccccc23)NC(=O)[C@@H](N)Cc2cnc[nH]2)C(=O)N[C@H](Cc2ccccc2)C(=O)N[C@@H](CCCCN)C(N)=O)c(Cl)c1	inactive	inactive	–	–	–	–
C[C@H](NC(=O)[C@@H](Cc1c[nH]c2ccccc12)NC(=O)[C@@H](N)Cc1cnc[nH]1)C(=O)NN(Cc1c[nH]nn1)C(=O)N[C@H](Cc1ccccc1)C(=O)N[C@@H](CCCCN)C(N)=O	inactive	inactive	–	–	–	–
C[C@H](N)C(=O)N[C@H](Cc1c[nH]c2ccccc12)C(=O)N[C@@H](C)C(=O)NN(Cc1ccc(C(F)(F)F)cc1)C(=O)N[C@H](Cc1ccccc1)C(=O)N[C@@H](CCCCN)C(N)=O	inactive	inactive	–	–	–	–
C[C@H](NC(=O)[C@@H](Cc1c[nH]c2ccccc12)NC(=O)[C@@H](N)Cc1cnc[nH]1)C(=O)NN(Cc1ccc(C(F)(F)F)cc1)C(=O)N[C@H](Cc1ccccc1)C(=O)N[C@@H](CCCCN)C(N)=O	inactive	inactive	–	–	–	–
C[C@H](NC(=O)[C@@H](Cc1c[nH]c2ccccc12)NC(=O)[C@@H](N)Cc1cnc[nH]1)C(=O)NN(Cc1ccc(F)cc1)C(=O)N[C@H](Cc1ccccc1)C(=O)N[C@@H](CCCCN)C(N)=O	Active	Active	6.06	4.6	Active	–
C[C@H](NC(=O)[C@@H](Cc1c[nH]c2ccccc12)NC(=O)[C@@H](N)Cc1cnc[nH]1)C(=O)NN(Cc1ccc(O)cc1)C(=O)N[C@H](Cc1ccccc1)C(=O)N[C@@H](CCCCN)C(N)=O (H-H[dW]A[azaTyr][dF]K-NH2)	inactive	inactive	1.9	14.8	Active	–

More lines, main results first:

inhibition [1]	inhibition [2]	IC50 [3] [µM]	fold change (FC) [4]	SMILES	Activity [5]	Activity [6]
Active	Active	7.51	3.7	COc1ccc(CN(NC(=O)[C@H](C)NC(=O)[C@@H](Cc2c[nH]c3ccccc23)NC(=O)[C@@H](N)Cc2cnc[nH]2)C(=O)N[C@H](Cc2ccccc2)C(=O)N[C@@H](CCCCN)C(N)=O)cc1	Active	–
inactive	inactive	–	–	C[C@H](NC(=O)[C@@H](Cc1c[nH]c2ccccc12)NC(=O)[C@@H](N)Cc1cnc[nH]1)C(=O)NN(Cc1ccc([N+](=O)[O-])cc1)C(=O)N[C@H](Cc1ccccc1)C(=O)N[C@@H](CCCCN)C(N)=O	–	–
inactive	inactive	–	–	C[C@H](N)C(=O)N[C@H](Cc1c[nH]c2ccccc12)C(=O)N[C@@H](C)C(=O)NN(Cc1ccc(I)cc1)C(=O)N[C@H](Cc1ccccc1)C(=O)N[C@@H](CCCCN)C(N)=O	–	–
Active	Active	5.51	5.1	Cc1cccc(C)c1CN(NC(=O)[C@H](C)NC(=O)[C@@H](Cc1c[nH]c2ccccc12)NC(=O)[C@@H](N)Cc1cnc[nH]1)C(=O)N[C@H](Cc1ccccc1)C(=O)N[C@@H](CCCCN)C(N)=O	inactive	–
inactive	inactive	–	–	COc1cc(Cl)cc(Cl)c1CN(NC(=O)[C@H](C)NC(=O)[C@@H](Cc1c[nH]c2ccccc12)NC(=O)[C@@H](N)Cc1cnc[nH]1)C(=O)N[C@H](Cc1ccccc1)C(=O)N[C@@H](CCCCN)C(N)=O	–	–
inactive	inactive	–	–	CC(C)Oc1ccc(CN(NC(=O)[C@H](C)NC(=O)[C@@H](Cc2c[nH]c3ccccc23)NC(=O)[C@@H](N)Cc2cnc[nH]2)C(=O)N[C@H](Cc2ccccc2)C(=O)N[C@@H](CCCCN)C(N)=O)cc1	–	–
–	–	9.19	3.1	C[C@H](N)C(=O)N[C@H](Cc1c[nH]c2ccccc12)C(=O)N[C@@H](C)C(=O)NN(Cc1ccc(O)cc1)C(=O)N[C@H](Cc1ccccc1)C(=O)N[C@@H](CCCCN)C(N)=O (H-A[dW]A[azaTyr][dF]K-NH2)	inactive	–
Active	Active	–	–	C[C@H](N)C(=O)N[C@H](Cc1c[nH]c2ccccc12)C(=O)N[C@@H](C)C(=O)NN(Cc1ccc([N+](=O)[O-])cc1)C(=O)N[C@H](Cc1ccccc1)C(=O)N[C@@H](CCCCN)C(N)=O	–	–
–	–	12.5	2.2	C[C@H](N)C(=O)N[C@H](Cc1c[nH]c2ccccc12)C(=O)N[C@@H](C)C(=O)NN(Cc1ccc(Br)cc1)C(=O)N[C@H](Cc1ccccc1)C(=O)N[C@@H](CCCCN)C(N)=O	inactive	–
Active	Active	19	1.5	C[C@H](N)C(=O)N[C@H](Cc1c[nH]c2ccccc12)C(=O)N[C@@H](C)C(=O)NN(Cc1ccccc1)C(=O)N[C@H](Cc1ccccc1)C(=O)N[C@@H](CCCCN)C(N)=O (H-A[dW]A[azaPhe][dF]K-NH2)	inactive	–
Active	Active	8.36	3.4	C[C@H](NC(=O)[C@@H](Cc1c[nH]c2ccccc12)NC(=O)[C@@H](N)Cc1cnc[nH]1)C(=O)NN(Cc1ccc(Cl)cc1)C(=O)N[C@H](Cc1ccccc1)C(=O)N[C@@H](CCCCN)C(N)=O	–	Toxic
inactive	inactive	–	–	C[C@H](NC(=O)[C@@H](Cc1c[nH]c2ccccc12)NC(=O)[C@@H](N)Cc1cnc[nH]1)C(=O)NN(CCCCCN)C(=O)N[C@H](Cc1ccccc1)C(=O)N[C@@H](CCCCN)C(N)=O	–	–
Active	Active	1.65	17.1	CCCOc1ccc(CN(NC(=O)[C@H](C)NC(=O)[C@@H](Cc2c[nH]c3ccccc23)NC(=O)[C@@H](N)Cc2cnc[nH]2)C(=O)N[C@H](Cc2ccccc2)C(=O)N[C@@H](CCCCN)C(N)=O)cc1	–	Toxic
